Tested on: 327498-153-R-J2-PDC multicell spheroid viability
Assay: Anticancer human tumor 327498-153-R-J2-PDC patient-derived uterine carcinosarcoma cell line growth inhibition [IpAb]
Conditions: for IC50: curve of first compound; for viability, T/C: stronger effect = lower value
Text: Combinatorial screen of targeted agents with ipatasertib and abemaciclib in multi-cell type tumor spheroids
A high-throughput screen of multi-cell type tumor spheroids was designed to identify active combinations of targeted small molecules and ipatasertib or abemaciclib. Complex spheroids include a stromal component modeled by human endothelial cells (HUVEC) and fibroblasts modeled by human mesenchymal stem cells (MSCs). The concentration ranges selected for each drug and investigational agent were based upon clinically achievable concentrations if the clinical Cmax of the agent was known.
Compounds. The drugs and investigational agents: ipatasertib (NSC767898), abemaciclib(NSC768073), selumetinib (NSC741078), trametinib (758246), adavosertib (NSC754352), everolimus (NSC733504), sapanisertib (NSC764658), vemurafenib (NSC761431), venetoclax (NSC766270), copanlisib (NSC809693), apelisib (NSC765974), palbociblib (NSC758247), vemurafenib (NSC761431), dabrafenib (NSC764134), ravoxertinib (NSC781343), BMS-387032 (NSC767048), sotorasib (NSC818433), talazoparib (NSC767125) and afursertib (NSC778305), were obtained from the National Cancer Institute (NCI) Developmental Therapeutics Program Chemical Repository. The FDA-approved anticancer drug set is available from the NCI Developmental Therapeutics Program. […] The stock solutions were prepared in dimethyl sulfoxide (DMSO, Sigma-Aldrich, St. Louis, MO, cat. D2650) at 800-fold the tested concentration and stored at -70 degrees C prior to their use. All drugs and investigational agents were tested over a range starting from a high concentration at or near the clinical Cmax and decreasing in half-log increments. If the clinical Cmax for an agent had not been determined, the highest concentration tested was 10 microM.
NCI60 Cell Culture. NCI60 cell lines were obtained from the NCI Developmental Therapeutics Program Tumor Repository. For each lot of cells, the Repository performed Applied Biosystems AmpFLSTR Identifiler testing with PCR amplification to confirm consistency with the published Identifier STR profile for each cell line. Cells were kept in continuous culture for no more than 20 passages. The optimal seeding densities for each of the cell lines at each time point assessed were determined prior to performing the concentration response studies. Briefly, the NCI60 human tumor lines were grown as monolayers in RPMI 1640 medium supplemented with 10% FBS and 2 mmol/L L-glutamine.
An additional 9 lines were from the NCI60 cell line panel including MDA-MB-231 breast carcinoma, MDA-MB-468 breast carcinoma, MCF7 breast carcinoma, Hs578T breast carcinoma, MALME-3M melanoma, SK-MEL-2 melanoma, SK-OV-3 ovarian carcinoma, DU-145 prostate carcinoma, PC-3 prostate carcinoma, all cell lines along with major genetic alterations are listed on Table 2. Pooled donor human umbilical vein endothelial cells (HUVEC, Lonza, cat. CC-2519) and human mesenchymal stem cells (hMSC, Lonza, cat. PT-2501) were purchased from Lonza (Walkersville, MD).
PDMR cell lines were grown in complete medium (DC medium): Dulbecco's modified Eagle's medium (DMEM)/F12 supplemented with 5% fetal bovine serum (FBS), 2 mM L-glutamine, 100 U/mL penicillin and 100 µg/ml streptomycin, 0.4 µg/ml hydrocortisone, 10 ng/ml epidermal growth factor (EGF) recombinant human protein, 24 µg/mL adenine, and 0.1 mg/mL primocin. During culture from frozen stock vials, PDMR cells were cultured in the same medium containing 10 µM Y-27632 (see Table 3). The PDCs were cultured in complete DMEM/F12 media without 10 microM Y-27632 dihydrochloride for at least two passages prior to the screen. The pooled donor HUVEC and hMSC were cultured in endothelial cell growth medium 2 (PromoCell, Heidelberg, Germany, cat. C-22011) and mesenchymal stem cell growth medium 2 (PromoCell, cat. C-28009), respectively. For all experiments, HUVEC and hMSC were used at passages </=5.
[…]

[1] = second compound 0.01 µM, first compound 0.0316 µM
[2] = second compound 0.01 µM, first compound 0.1 µM
[3] = second compound 0.01 µM, first compound 0.316 µM
[4] = second compound 0.01 µM, first compound 1 µM
[5] = second compound 0.01 µM, first compound 3.16 µM
[6] = second compound 0.01 µM, first compound 10 µM
[7] = second compound 0.0316 µM, first compound 0.0316 µM
[8] = second compound 0.0316 µM, first compound 0.1 µM
[9] = second compound 0.0316 µM, first compound 0.316 µM
[10] = second compound 0.0316 µM, first compound 1 µM
[11] = second compound 0.0316 µM, first compound 3.16 µM
[12] = second compound 0.0316 µM, first compound 10 µM
[13] = second compound 0.1 µM, first compound 0.0316 µM
[14] = second compound 0.1 µM, first compound 0.1 µM
[15] = second compound 0.1 µM, first compound 0.316 µM
[16] = second compound 0.1 µM, first compound 1 µM
[17] = second compound 0.1 µM, first compound 3.16 µM
[18] = second compound 0.1 µM, first compound 10 µM
[19] = second compound 0.316 µM, first compound 0.0316 µM
[20] = second compound 0.316 µM, first compound 0.1 µM
[21] = second compound 0.316 µM, first compound 0.316 µM
[22] = second compound 0.316 µM, first compound 1 µM
[23] = second compound 0.316 µM, first compound 3.16 µM
[24] = second compound 0.316 µM, first compound 10 µM
[25] = second compound 1 µM, first compound 0.0316 µM
[26] = second compound 1 µM, first compound 0.1 µM
[27] = second compound 1 µM, first compound 0.316 µM
[28] = second compound 1 µM, first compound 1 µM
[29] = second compound 1 µM, first compound 3.16 µM
[30] = second compound 1 µM, first compound 10 µM
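Further: spheroids exposed to agents for 7 days.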
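Wherever viability, T/C is given: 100% = DMSO vehicle control viability.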

## Cc1nc(NC(=O)N2CCCC2C(N)=O)sc1-c1ccnc(C(C)(C)C(F)(F)F)c1 (stereo not given) + CCN1CCN(Cc2ccc(Nc3ncc(F)c(-c4cc(F)c5nc(C)n(C(C)C)c5c4)n3)nc2)CC1
Second compound 0.01 µM
  IC50: 6390 nM
Second compound 0.0316 µM
  IC50: 1040 nM
Second compound 0.1 µM
  IC50: 442 nM
Second compound 0.316 µM
  IC50: 262 nM
Second compound 1 µM
  IC50: 150 nM
[1]
  viability, T/C: 91.6%
[2]
  viability, T/C: 85.8%
[3]
  viability, T/C: 77%
[4]
  viability, T/C: 68.2%
[5]
  viability, T/C: 63%
[6]
  viability, T/C: 42.5%
[7]
  viability, T/C: 69.7%
[8]
  viability, T/C: 69.3%
[9]
  viability, T/C: 63.3%
[10]
  viability, T/C: 46.4%
[11]
  viability, T/C: 41.3%
[12]
  viability, T/C: 27.3%
[13]
  viability, T/C: 61.8%
[14]
  viability, T/C: 58.5%
[15]
  viability, T/C: 50.4%
[16]
  viability, T/C: 46%
[17]
  viability, T/C: 36.9%
[18]
  viability, T/C: 26%
[19]
  viability, T/C: 58%
[20]
  viability, T/C: 57.2%
[21]
  viability, T/C: 47.8%
[22]
  viability, T/C: 42.6%
[23]
  viability, T/C: 35.3%
[24]
  viability, T/C: 28.1%
[25]
  viability, T/C: 54%
[26]
  viability, T/C: 55.7%
[27]
  viability, T/C: 43.5%
[28]
  viability, T/C: 41.1%
[29]
  viability, T/C: 34.8%
[30]
  viability, T/C: 25.9%

## Cn1ncc(Cl)c1-c1cc(C(=O)NC(CN)Cc2cccc(F)c2)sc1Cl (stereo not given) + CCN1CCN(Cc2ccc(Nc3ncc(F)c(-c4cc(F)c5nc(C)n(C(C)C)c5c4)n3)nc2)CC1
Second compound 0.01 µM
  IC50: 312 nM
Second compound 0.0316 µM
  IC50: 125 nM
Second compound 0.1 µM
  IC50: 50.1 nM
Second compound 0.316 µM
  IC50: < 31.6 nM
Second compound 1 µM
  IC50: 64.4 nM
[1]
  viability, T/C: 78%
[2]
  viability, T/C: 60.3%
[3]
  viability, T/C: 48.7%
[4]
  viability, T/C: 35.4%
[5]
  viability, T/C: 24.5%
[6]
  viability, T/C: 0.14%
[7]
  viability, T/C: 64.5%
[8]
  viability, T/C: 49%
[9]
  viability, T/C: 40.5%
[10]
  viability, T/C: 27.9%
[11]
  viability, T/C: 24%
[12]
  viability, T/C: 0.12%
[13]
  viability, T/C: 53.4%
[14]
  viability, T/C: 46.2%
[15]
  viability, T/C: 34.4%
[16]
  viability, T/C: 28.1%
[17]
  viability, T/C: 21.1%
[18]
  viability, T/C: 0.12%
[19]
  viability, T/C: 48.9%
[20]
  viability, T/C: 44.5%
[21]
  viability, T/C: 33.9%
[22]
  viability, T/C: 28.9%
[23]
  viability, T/C: 20.6%
[24]
  viability, T/C: 0.14%
[25]
  viability, T/C: 54.1%
[26]
  viability, T/C: 49.1%
[27]
  viability, T/C: 34.9%
[28]
  viability, T/C: 29.9%
[29]
  viability, T/C: 21.7%
[30]
  viability, T/C: 0.2%

## CC(C)n1nc(-c2ccc3oc(N)nc3c2)c2c(N)ncnc21 + CC(C)NCC(C(=O)N1CCN(c2ncnc3c2C(C)CC3O)CC1)c1ccc(Cl)cc1
Second compound 0.1 µM
  IC50: 5.3 nM
Second compound 0.316 µM
  IC50: 1.76 nM
Second compound 1 µM
  IC50: 0.442 nM
Second compound 3.16 µM
  IC50: < 0.316 nM
Second compound 10 µM
  IC50: < 0.316 nM
Second compound 0.1 µM, first compound 0.000316 µM
  viability, T/C: 83.5%
Second compound 0.1 µM, first compound 0.001 µM
  viability, T/C: 80%
Second compound 0.1 µM, first compound 0.00316 µM
  viability, T/C: 60.3%
Second compound 0.1 µM, first compound 0.01 µM
  viability, T/C: 36.6%
[13]
  viability, T/C: 20.7%
[14]
  viability, T/C: 15.7%
Second compound 0.316 µM, first compound 0.000316 µM
  viability, T/C: 74.6%
Second compound 0.316 µM, first compound 0.001 µM
  viability, T/C: 56.5%
Second compound 0.316 µM, first compound 0.00316 µM
  viability, T/C: 44%
Second compound 0.316 µM, first compound 0.01 µM
  viability, T/C: 24.4%
[19]
  viability, T/C: 16.6%
[20]
  viability, T/C: 13.3%
Second compound 1 µM, first compound 0.000316 µM
  viability, T/C: 55.1%
Second compound 1 µM, first compound 0.001 µM
  viability, T/C: 36.9%
Second compound 1 µM, first compound 0.00316 µM
  viability, T/C: 28.4%
Second compound 1 µM, first compound 0.01 µM
  viability, T/C: 16.8%
[25]
  viability, T/C: 10.6%
[26]
  viability, T/C: 11%
Second compound 3.16 µM, first compound 0.000316 µM
  viability, T/C: 39.2%
Second compound 3.16 µM, first compound 0.001 µM
  viability, T/C: 29.1%
Second compound 3.16 µM, first compound 0.00316 µM
  viability, T/C: 19.9%
Second compound 3.16 µM, first compound 0.01 µM
  viability, T/C: 11.5%
Second compound 3.16 µM, first compound 0.0316 µM
  viability, T/C: 8.42%
Second compound 3.16 µM, first compound 0.1 µM
  viability, T/C: 7.91%
Second compound 10 µM, first compound 0.000316 µM
  viability, T/C: 26.9%
Second compound 10 µM, first compound 0.001 µM
  viability, T/C: 24%
Second compound 10 µM, first compound 0.00316 µM
  viability, T/C: 13.7%
Second compound 10 µM, first compound 0.01 µM
  viability, T/C: 9.73%
Second compound 10 µM, first compound 0.0316 µM
  viability, T/C: 6.51%
Second compound 10 µM, first compound 0.1 µM
  viability, T/C: 6.09%

— PubChem BioAssay AID2060341 (Molecular Pharmacology Branch, DTP, NCI, 2025)
